In the CheMixHub viscosity set:
± gives the uncertainty stated by the source.

Assay: xn = mol fraction of the nth substance listed

CCCCCCO + CCCCCC
Conditions	viscosity [mPa·s]
293.15 K, 100 kPa, x1 = 0.0277	0.3397 ± 0.0052
293.15 K, 100 kPa, x1 = 0.05	0.3453 ± 0.0053
293.15 K, 100 kPa, x1 = 0.1	0.3793 ± 0.0055
293.15 K, 100 kPa, x1 = 0.1976	0.4607 ± 0.006
293.15 K, 100 kPa, x1 = 0.2999	0.5855 ± 0.0069
293.15 K, 100 kPa, x1 = 0.3999	0.7701 ± 0.0086
293.15 K, 100 kPa, x1 = 0.5	1.068 ± 0.011
293.15 K, 100 kPa, x1 = 0.6002	1.481 ± 0.016
293.15 K, 100 kPa, x1 = 0.7	1.971 ± 0.021
293.15 K, 100 kPa, x1 = 0.8	2.71 ± 0.029
293.15 K, 100 kPa, x1 = 0.9096	3.927 ± 0.044
298.15 K, 100 kPa, x1 = 0.0277	0.3247 ± 0.0052
298.15 K, 100 kPa, x1 = 0.05	0.329 ± 0.0052
298.15 K, 100 kPa, x1 = 0.1	0.3597 ± 0.0054
298.15 K, 100 kPa, x1 = 0.1976	0.433 ± 0.0058
298.15 K, 100 kPa, x1 = 0.2999	0.5506 ± 0.0067
298.15 K, 100 kPa, x1 = 0.3999	0.7084 ± 0.0081
298.15 K, 100 kPa, x1 = 0.5	0.9696 ± 0.011
298.15 K, 100 kPa, x1 = 0.6002	1.328 ± 0.014
298.15 K, 100 kPa, x1 = 0.7	1.765 ± 0.019
298.15 K, 100 kPa, x1 = 0.8	2.381 ± 0.026
298.15 K, 100 kPa, x1 = 0.9096	3.398 ± 0.038
298.15 K, 101.33 kPa, x2 = 0.1327	3.088 ± 0.024
298.15 K, 101.33 kPa, x2 = 0.1854	2.578 ± 0.02
298.15 K, 101.33 kPa, x2 = 0.2308	2.207 ± 0.017
298.15 K, 101.33 kPa, x2 = 0.3137	1.632 ± 0.013
298.15 K, 101.33 kPa, x2 = 0.4404	1.072 ± 0.009
298.15 K, 101.33 kPa, x2 = 0.4841	0.941 ± 0.008
298.15 K, 101.33 kPa, x2 = 0.6117	0.648 ± 0.006
298.15 K, 101.33 kPa, x2 = 0.7122	0.501 ± 0.005
298.15 K, 101.33 kPa, x2 = 0.8046	0.408 ± 0.004
298.15 K, 101.33 kPa, x2 = 0.8997	0.338 ± 0.004
298.15 K, 101.33 kPa, x2 = 0.9493	0.309 ± 0.003
303 K, 101.33 kPa, x1 = 0.0995	0.3348 ± 0.013
303 K, 101.33 kPa, x1 = 0.1996	0.4052 ± 0.013
303 K, 101.33 kPa, x1 = 0.2995	0.5115 ± 0.015
303 K, 101.33 kPa, x1 = 0.4012	0.6522 ± 0.016
303 K, 101.33 kPa, x1 = 0.5004	0.8535 ± 0.019
303 K, 101.33 kPa, x1 = 0.6	1.167 ± 0.025
303 K, 101.33 kPa, x1 = 0.6983	1.608 ± 0.036
303 K, 101.33 kPa, x1 = 0.7965	2.139 ± 0.051
303 K, 101.33 kPa, x1 = 0.8984	2.867 ± 0.075
303.15 K, 100 kPa, x1 = 0.0277	0.3116 ± 0.0051
303.15 K, 100 kPa, x1 = 0.05	0.3153 ± 0.0051
303.15 K, 100 kPa, x1 = 0.1	0.343 ± 0.0053
303.15 K, 100 kPa, x1 = 0.1976	0.4107 ± 0.0057
303.15 K, 100 kPa, x1 = 0.2999	0.5173 ± 0.0065
303.15 K, 100 kPa, x1 = 0.3999	0.6524 ± 0.0076
303.15 K, 100 kPa, x1 = 0.5	0.885 ± 0.0098
303.15 K, 100 kPa, x1 = 0.6002	1.194 ± 0.013
303.15 K, 100 kPa, x1 = 0.7	1.569 ± 0.017
303.15 K, 100 kPa, x1 = 0.8	2.091 ± 0.023
303.15 K, 100 kPa, x1 = 0.9096	2.945 ± 0.033
303.15 K, 101.33 kPa, x2 = 0.0954	2.883 ± 0.026
303.15 K, 101.33 kPa, x2 = 0.1918	2.18 ± 0.02
303.15 K, 101.33 kPa, x2 = 0.2892	1.6 ± 0.015
303.15 K, 101.33 kPa, x2 = 0.3876	1.19 ± 0.011
303.15 K, 101.33 kPa, x2 = 0.487	0.8951 ± 0.0087
303.15 K, 101.33 kPa, x2 = 0.5874	0.6793 ± 0.0068
303.15 K, 101.33 kPa, x2 = 0.689	0.5301 ± 0.0054
303.15 K, 101.33 kPa, x2 = 0.7915	0.4188 ± 0.0045
303.15 K, 101.33 kPa, x2 = 0.8952	0.3557 ± 0.0039
308.15 K, 100 kPa, x1 = 0.0277	0.2979 ± 0.005
308.15 K, 100 kPa, x1 = 0.05	0.3006 ± 0.0051
308.15 K, 100 kPa, x1 = 0.1	0.3256 ± 0.0052
308.15 K, 100 kPa, x1 = 0.1976	0.3877 ± 0.0056
308.15 K, 100 kPa, x1 = 0.2999	0.4855 ± 0.0062
308.15 K, 100 kPa, x1 = 0.3999	0.6019 ± 0.0072
308.15 K, 100 kPa, x1 = 0.5	0.8102 ± 0.0092
308.15 K, 100 kPa, x1 = 0.6002	1.08 ± 0.012
308.15 K, 100 kPa, x1 = 0.7	1.406 ± 0.015
308.15 K, 100 kPa, x1 = 0.8	1.847 ± 0.021
308.15 K, 100 kPa, x1 = 0.9096	2.566 ± 0.029
313 K, 101.33 kPa, x1 = 0.0995	0.3081 ± 0.012
313 K, 101.33 kPa, x1 = 0.1996	0.3673 ± 0.013
313 K, 101.33 kPa, x1 = 0.2995	0.4576 ± 0.014
313 K, 101.33 kPa, x1 = 0.4012	0.5618 ± 0.015
313 K, 101.33 kPa, x1 = 0.5004	0.725 ± 0.017
313 K, 101.33 kPa, x1 = 0.6	0.9609 ± 0.021
313 K, 101.33 kPa, x1 = 0.6983	1.287 ± 0.027
313 K, 101.33 kPa, x1 = 0.7965	1.673 ± 0.036
313 K, 101.33 kPa, x1 = 0.8984	2.185 ± 0.05
313.15 K, 100 kPa, x1 = 0.0277	0.2857 ± 0.005
313.15 K, 100 kPa, x1 = 0.05	0.2883 ± 0.005
313.15 K, 100 kPa, x1 = 0.1	0.3109 ± 0.0051
313.15 K, 100 kPa, x1 = 0.1976	0.3694 ± 0.0055
313.15 K, 100 kPa, x1 = 0.2999	0.4503 ± 0.006
313.15 K, 100 kPa, x1 = 0.3999	0.555 ± 0.0069
313.15 K, 100 kPa, x1 = 0.5	0.7462 ± 0.0086
313.15 K, 100 kPa, x1 = 0.6002	0.9846 ± 0.011
313.15 K, 100 kPa, x1 = 0.7	1.272 ± 0.014
313.15 K, 100 kPa, x1 = 0.8	1.644 ± 0.018
313.15 K, 100 kPa, x1 = 0.9096	2.251 ± 0.026
313.15 K, 101.33 kPa, x2 = 0.0954	2.219 ± 0.02
313.15 K, 101.33 kPa, x2 = 0.1918	1.71 ± 0.016
313.15 K, 101.33 kPa, x2 = 0.2892	1.295 ± 0.012
313.15 K, 101.33 kPa, x2 = 0.3876	0.9896 ± 0.0095
313.15 K, 101.33 kPa, x2 = 0.487	0.7581 ± 0.0075
313.15 K, 101.33 kPa, x2 = 0.5874	0.5894 ± 0.006
313.15 K, 101.33 kPa, x2 = 0.689	0.4749 ± 0.005
313.15 K, 101.33 kPa, x2 = 0.7915	0.3791 ± 0.0041
313.15 K, 101.33 kPa, x2 = 0.8952	0.3285 ± 0.0037
318.15 K, 100 kPa, x1 = 0.0277	0.2746 ± 0.0049
318.15 K, 100 kPa, x1 = 0.05	0.2766 ± 0.005
318.15 K, 100 kPa, x1 = 0.1	0.297 ± 0.0051
318.15 K, 100 kPa, x1 = 0.1976	0.3511 ± 0.0054
318.15 K, 100 kPa, x1 = 0.2999	0.4266 ± 0.0059
318.15 K, 100 kPa, x1 = 0.3999	0.5178 ± 0.0066
318.15 K, 100 kPa, x1 = 0.5	0.6859 ± 0.0081
318.15 K, 100 kPa, x1 = 0.6002	0.8985 ± 0.01
318.15 K, 100 kPa, x1 = 0.7	1.155 ± 0.013
318.15 K, 100 kPa, x1 = 0.8	1.48 ± 0.017
318.15 K, 100 kPa, x1 = 0.9096	1.987 ± 0.023
323 K, 101.33 kPa, x1 = 0.0995	0.2787 ± 0.012
323 K, 101.33 kPa, x1 = 0.1996	0.3303 ± 0.013
323 K, 101.33 kPa, x1 = 0.2995	0.4051 ± 0.013
323 K, 101.33 kPa, x1 = 0.4012	0.5023 ± 0.014
323 K, 101.33 kPa, x1 = 0.5004	0.6113 ± 0.015
323 K, 101.33 kPa, x1 = 0.6	0.7992 ± 0.018
323 K, 101.33 kPa, x1 = 0.6983	1.049 ± 0.022
323 K, 101.33 kPa, x1 = 0.7965	1.34 ± 0.027
323 K, 101.33 kPa, x1 = 0.8984	1.721 ± 0.036
323.15 K, 100 kPa, x2 = 0.25	1.211 ± 0.069
323.15 K, 101.33 kPa, x2 = 0.0954	1.682 ± 0.015
323.15 K, 101.33 kPa, x2 = 0.1918	1.32 ± 0.012
323.15 K, 101.33 kPa, x2 = 0.2892	1.02 ± 0.01
323.15 K, 101.33 kPa, x2 = 0.3876	0.8098 ± 0.0079
323.15 K, 101.33 kPa, x2 = 0.487	0.6263 ± 0.0063
323.15 K, 101.33 kPa, x2 = 0.5874	0.5103 ± 0.0053
323.15 K, 101.33 kPa, x2 = 0.689	0.404 ± 0.0043
323.15 K, 101.33 kPa, x2 = 0.7915	0.3396 ± 0.0038
323.15 K, 101.33 kPa, x2 = 0.8952	0.2844 ± 0.0033
